# Experimental data taken from patent US20230079819A1, “COMPOUNDS AND USES THEREOF” (Foghorn Therapeutics Inc., priority 2019, published 2023).
# Values joined by “and” are separate entries in the source; they are usually repeats but may differ in a detail not shown here. Identical values can stand only once. Like-named read-outs stand apart in the source and are kept apart here.
# Experiments:
# BRM = biological target: T1, BRM (Homo sapiens, UniProt P51531); assay: ATPase catalytic activity of BRM, ADP-Glo in vitro biochemical assay; details: 30 nM BRM, 400 μM ATP
# T1 construct: made in house; host or cells: High Five insect cells
# BRG-1 = biological target: T2, BRG-1 (Homo sapiens, UniProt P51532); assay: ATPase catalytic activity of BRG-1, ADP-Glo in vitro biochemical assay; details: 30 nM BRG-1, 400 μM ATP
# T2 construct: made in house; host or cells: High Five insect cells
# [1] = ATPase catalytic activity, read-out: BRM IP50 (μM)*
# [2] = ATPase catalytic activity, read-out: BRG1 IP50 (μM)*
# [3] = ATPase catalytic activity, read-out: BRM IP50
# [4] = ATPase catalytic activity, read-out: BRG1 IP50
# T2 sequence (P51532 whole entry): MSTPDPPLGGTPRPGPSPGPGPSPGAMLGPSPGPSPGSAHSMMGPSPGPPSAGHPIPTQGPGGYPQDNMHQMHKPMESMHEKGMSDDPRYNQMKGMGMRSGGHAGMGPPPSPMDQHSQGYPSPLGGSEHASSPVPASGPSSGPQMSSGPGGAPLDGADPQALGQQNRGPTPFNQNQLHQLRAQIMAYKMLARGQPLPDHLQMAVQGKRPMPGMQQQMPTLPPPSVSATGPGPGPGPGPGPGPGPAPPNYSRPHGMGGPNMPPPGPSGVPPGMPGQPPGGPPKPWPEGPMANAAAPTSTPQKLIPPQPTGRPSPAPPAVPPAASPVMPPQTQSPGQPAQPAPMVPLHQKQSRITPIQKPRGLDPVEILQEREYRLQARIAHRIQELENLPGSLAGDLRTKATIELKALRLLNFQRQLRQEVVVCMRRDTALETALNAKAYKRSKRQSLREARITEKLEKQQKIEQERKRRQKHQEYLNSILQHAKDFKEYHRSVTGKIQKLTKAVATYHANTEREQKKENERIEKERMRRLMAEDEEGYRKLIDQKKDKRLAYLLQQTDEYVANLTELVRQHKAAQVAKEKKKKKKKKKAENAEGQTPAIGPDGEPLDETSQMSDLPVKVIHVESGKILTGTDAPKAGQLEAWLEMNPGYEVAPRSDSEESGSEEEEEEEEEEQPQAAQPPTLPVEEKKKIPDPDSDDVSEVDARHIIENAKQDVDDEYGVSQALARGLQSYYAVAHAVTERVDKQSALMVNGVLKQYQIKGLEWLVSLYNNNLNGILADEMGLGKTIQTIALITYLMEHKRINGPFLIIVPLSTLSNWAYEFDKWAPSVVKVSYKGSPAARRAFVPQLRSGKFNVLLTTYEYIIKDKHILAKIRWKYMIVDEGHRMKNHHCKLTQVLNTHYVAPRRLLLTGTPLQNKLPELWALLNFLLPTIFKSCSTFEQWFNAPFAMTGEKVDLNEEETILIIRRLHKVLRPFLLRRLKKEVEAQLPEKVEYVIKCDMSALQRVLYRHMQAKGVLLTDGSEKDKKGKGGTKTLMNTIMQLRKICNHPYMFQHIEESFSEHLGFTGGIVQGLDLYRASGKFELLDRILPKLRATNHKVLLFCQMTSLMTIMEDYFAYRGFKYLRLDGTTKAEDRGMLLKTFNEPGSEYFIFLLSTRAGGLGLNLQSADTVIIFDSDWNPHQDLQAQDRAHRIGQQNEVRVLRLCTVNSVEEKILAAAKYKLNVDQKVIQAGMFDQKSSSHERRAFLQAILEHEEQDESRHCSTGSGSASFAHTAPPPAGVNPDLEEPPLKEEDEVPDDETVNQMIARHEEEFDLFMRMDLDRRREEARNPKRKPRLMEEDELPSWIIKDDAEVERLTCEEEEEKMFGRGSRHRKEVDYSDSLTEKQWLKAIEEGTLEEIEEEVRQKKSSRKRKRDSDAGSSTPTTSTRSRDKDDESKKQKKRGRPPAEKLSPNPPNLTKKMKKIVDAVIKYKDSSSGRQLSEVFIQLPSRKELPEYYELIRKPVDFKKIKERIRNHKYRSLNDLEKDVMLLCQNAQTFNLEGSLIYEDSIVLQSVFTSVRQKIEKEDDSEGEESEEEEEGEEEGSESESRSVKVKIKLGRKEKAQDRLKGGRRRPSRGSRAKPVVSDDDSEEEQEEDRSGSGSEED
# T1 sequence (P51531 whole entry): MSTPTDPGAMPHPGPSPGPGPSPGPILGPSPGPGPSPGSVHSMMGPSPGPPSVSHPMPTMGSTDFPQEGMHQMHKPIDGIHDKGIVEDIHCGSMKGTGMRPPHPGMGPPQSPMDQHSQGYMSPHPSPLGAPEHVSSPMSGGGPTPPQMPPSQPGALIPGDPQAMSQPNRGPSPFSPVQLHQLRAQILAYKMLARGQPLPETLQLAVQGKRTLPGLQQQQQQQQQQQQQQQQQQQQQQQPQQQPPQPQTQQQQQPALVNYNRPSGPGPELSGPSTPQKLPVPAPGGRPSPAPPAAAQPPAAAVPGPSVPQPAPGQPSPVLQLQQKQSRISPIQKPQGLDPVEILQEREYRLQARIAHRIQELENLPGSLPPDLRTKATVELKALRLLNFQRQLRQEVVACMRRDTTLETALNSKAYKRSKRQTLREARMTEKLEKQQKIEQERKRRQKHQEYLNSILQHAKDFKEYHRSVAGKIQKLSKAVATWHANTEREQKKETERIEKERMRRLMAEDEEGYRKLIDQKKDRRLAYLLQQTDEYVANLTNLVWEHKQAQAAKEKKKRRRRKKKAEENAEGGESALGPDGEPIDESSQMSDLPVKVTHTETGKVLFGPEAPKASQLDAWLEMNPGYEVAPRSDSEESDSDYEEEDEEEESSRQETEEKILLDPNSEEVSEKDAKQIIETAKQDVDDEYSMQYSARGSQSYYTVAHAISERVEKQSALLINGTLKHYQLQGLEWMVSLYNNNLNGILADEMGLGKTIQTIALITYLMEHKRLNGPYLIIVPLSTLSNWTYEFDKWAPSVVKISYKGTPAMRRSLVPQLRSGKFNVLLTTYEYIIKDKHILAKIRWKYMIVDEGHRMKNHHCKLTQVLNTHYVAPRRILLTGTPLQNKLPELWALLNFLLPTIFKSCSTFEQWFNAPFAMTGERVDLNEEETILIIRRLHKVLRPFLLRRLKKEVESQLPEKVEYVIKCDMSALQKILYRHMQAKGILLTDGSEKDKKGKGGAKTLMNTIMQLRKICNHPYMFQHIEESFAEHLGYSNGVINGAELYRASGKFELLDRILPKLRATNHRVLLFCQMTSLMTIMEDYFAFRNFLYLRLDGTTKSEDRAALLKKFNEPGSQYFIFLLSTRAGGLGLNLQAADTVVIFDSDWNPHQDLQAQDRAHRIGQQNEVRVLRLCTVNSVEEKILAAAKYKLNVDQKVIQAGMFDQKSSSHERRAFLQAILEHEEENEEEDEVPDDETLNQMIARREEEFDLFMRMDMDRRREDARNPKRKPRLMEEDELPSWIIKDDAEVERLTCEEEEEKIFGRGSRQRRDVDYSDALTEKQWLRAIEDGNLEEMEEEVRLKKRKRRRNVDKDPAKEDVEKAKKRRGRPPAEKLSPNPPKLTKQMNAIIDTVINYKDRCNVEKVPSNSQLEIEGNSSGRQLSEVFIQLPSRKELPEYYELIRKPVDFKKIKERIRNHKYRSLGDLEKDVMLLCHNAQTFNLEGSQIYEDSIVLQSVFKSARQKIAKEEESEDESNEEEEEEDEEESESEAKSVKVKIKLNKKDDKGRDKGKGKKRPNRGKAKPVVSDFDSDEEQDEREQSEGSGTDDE
IC50 (BRM; [1]),IC50 (BRG-1; [2]) [µM],IC50 (BRM; [3]) [µM],IC50 (BRG-1; [4]) [µM],SMILES,further results
< 0.01 µM and > 0.01 µM,< 0.01,–,–,"CS(=O)(=O)n1ccc(C(=O)N[C@@H](CCO)C(=O)Nc2nc(-c3cccc(-c4ccncc4)c3)cs2)c1 [Compound 71, (S)—N-(4-hydroxy-1-oxo-1-((4-(3-(pyridin-4-yl)phenyl)thiazol-2-yl)amino)butan-2-yl)-1-(methylsulfonyl)-1H-pyrrole-3-carboxamide]",–
> 0.01 µM,> 0.01,–,–,CC(C)(C)n1ccc(C(=O)NCC(=O)Nc2nc(-c3cccc(N4CCC4)c3)cs2)c1 [Compound 186],–
–,–,> 0.1,> 0.1,Cn1ccc(-c2cccc(-c3csc(NC(=O)CNC(=O)c4cn(C5(C#N)CC5)cn4)n3)c2)n1 [Compound 780],–
–,–,> 0.01,> 0.01,C[C@@H]1CN(c2cccc(-c3csc(NC(=O)CNC(=O)c4ccn(C(C)(C)C)n4)n3)c2)C[C@H](C)O1 [Compound 777],–
> 0.01 µM,> 0.01,–,–,CC1(n2ccc(C(=O)NCC(=O)Nc3nc(-c4cccc(N5CCC5)c4)cs3)c2)COC1 [Compound 185],–
> 0.01 µM,> 0.01,–,–,C[C@H](NC(=O)c1ccn(C2(C)COC2)c1)C(=O)Nc1nc(-c2ccc3ccn(C)c(=O)c3c2)cs1 [Compound 348],–
> 0.01 µM,> 0.1,–,–,CN1CCCc2ccc(-c3csc(NC(=O)CNC(=O)c4ccn(C(C)(C)C)c4)n3)nc21 [Compound 383],–
–,–,> 0.01,> 0.01,CC(C)(C#N)n1cnc(C(=O)NCC(=O)Nc2nc(-c3cc(F)c4c(c3)OCC4)cs2)c1 [Compound 785],–
< 0.01 µM,> 0.01,–,–,C[C@@H]1CN(c2cccc(-c3csc(NC(=O)CNC(=O)c4ccn(S(C)(=O)=O)c4)n3)c2)CC[C@@H]1O [Compound 188],–
< 0.01 µM,< 0.01,–,–,C[C@@H]1CN(c2cc(-c3csc(NC(=O)CNC(=O)c4ccn(S(C)(=O)=O)c4)n3)ccc2F)C[C@H](C)O1 [Compound 293],–
> 0.01 µM,> 0.01,–,–,"CC(C)(C)n1ccc(C(=O)NCC(=O)Nc2nc(-c3cccc(-c4ccnc(CN)c4)c3)cs2)c1 [Compound 24, N-(2-((4-(3-(2-(aminomethyl)pyridin-4-yl)phenyl)thiazol-2-yl)amino)-2-oxoethyl)-1-(tert-butyl)-1H-pyrrole-3-carboxamide]",–
< 0.01 µM,< 0.01,–,–,CS(=O)(=O)n1ccc(C(=O)NCC(=O)Nc2nc(-c3cccc(N4CC(O)C4)c3)cs2)c1 [Compound 212],–
–,–,> 0.01,> 0.01,COC[C@H](NC(=O)c1ccn(S(C)(=O)=O)c1)C(=O)Nc1nc(-c2cccc(OC)c2F)cs1 [Compound 710],–
–,–,–,–,C[C@@H]1CN(c2cccc(-c3csc(NC(=O)CNC(=O)c4ccn(C(C)(C)C#N)n4)n3)n2)C[C@H](C)O1 [Compound 786],IC50 (BRM; read-out: BRM IP50): < 0.01 µM; IC50 (BRG-1; read-out: BRG1 IP50): > 0.01 µM
> 0.01 µM,> 0.01,–,–,CO[C@]1(C)CCCN(c2cccc(-c3csc(NC(=O)CNC(=O)c4ccn(S(C)(=O)=O)c4)n3)c2)C1 [Compound 257],–
–,–,> 0.01,> 0.01,CS(=O)(=O)n1ccc(C(=O)NCC(=O)Nc2nc(-c3ccc4c(c3)N(C3CCOC3)CC4)cs2)c1 (stereo not drawn) [Compound 467],–
–,–,> 0.01,> 0.1,C[C@@H]1CN(c2cncc(-c3csc(NC(=O)CNC(=O)c4ccn(C(C)(C)C)c4)n3)c2)C[C@H](C)O1 [Compound 685],–
> 0.01 µM,> 0.01,–,–,COC[C@H]1CCN(c2cccc(-c3csc(NC(=O)CNC(=O)c4ccn(S(C)(=O)=O)c4)n3)c2)C1 [Compound 200],–
–,–,> 0.01,> 0.01,CCS(=O)(=O)n1ccc(C(=O)NCC(=O)Nc2nc(-c3cccc(-c4cnn(C)n4)c3)cs2)c1 [Compound 403],–
< 0.01 µM,> 0.01,–,–,CCS(=O)(=O)n1ccc(C(=O)NCC(=O)Nc2nc(-c3cccc(N4C[C@@H](C)O[C@@H](C)C4)c3)cs2)c1 [Compound 228],–
< 0.01 µM,> 0.01,–,–,COC[C@H](NC(=O)c1ccn(S(C)(=O)=O)c1)C(=O)Nc1nc(-c2cccc(N3CCC3)c2)cs1 [Compound 366],–
